Experimental data published in PubChem BioAssay AID256 (DTP/NCI, 2004).
“And” between values parts separate entries of the source, which are not always exact repeats. Equal values may be shown once. Toxic doses and inconclusive results are not listed. The calls were made as follows: active = survival T/C of 150% or more; inactive = T/C below 125% in these data.

Tested on: CD2F1 mice, L1210 leukemia ip, survival T/C
Assay: NCI In Vivo Anticancer Drug Screen. Data for tumor model L1210 Leukemia (intraperitoneal) in CD2F1 (CDF1) mice
Conditions: higher = longer survival
Summary of the method: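 Ratio T/C, where T is the treated-group value and C the vehicle-dosed control value, from mice implanted with a transplantable tumor.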

[1] = endpoint: mean survival time, dose: 100.0 mg/kg/injection, schedule: Q04DX002 (ip), vehicle: saline with Tween-80
[2] = endpoint: mean survival time, dose: 200.0 mg/kg/injection, schedule: Q04DX002 (ip), vehicle: saline with Tween-80
[3] = endpoint: mean survival time, dose: 400.0 mg/kg/injection, schedule: Q04DX002 (ip), vehicle: saline with Tween-80
[4] = endpoint: mean survival time, dose: 100.0 mg/kg/injection, schedule: Q04DX003 (ip), vehicle: saline with Tween-80
[5] = endpoint: mean survival time, dose: 200.0 mg/kg/injection, schedule: Q04DX003 (ip), vehicle: saline with Tween-80
[6] = endpoint: mean survival time, dose: 400.0 mg/kg/injection, schedule: Q04DX003 (ip), vehicle: saline with Tween-80
[7] = endpoint: mean survival time, dose: 100.0 mg/kg/injection, schedule: Q01DX001 (ip), vehicle: saline with Tween-80
[8] = endpoint: mean survival time, dose: 200.0 mg/kg/injection, schedule: Q01DX001 (ip), vehicle: saline with Tween-80
[9] = endpoint: mean survival time, dose: 400.0 mg/kg/injection, schedule: Q01DX001 (ip), vehicle: saline with Tween-80
[10] = endpoint: mean survival time, dose: 100.0 mg/kg/injection, schedule: Q01DX009 (ip), vehicle: saline with Tween-80
[11] = endpoint: mean survival time, dose: 200.0 mg/kg/injection, schedule: Q01DX009 (ip), vehicle: saline with Tween-80
[12] = endpoint: mean survival time, dose: 400.0 mg/kg/injection, schedule: Q01DX009 (ip), vehicle: saline with Tween-80
[13] = endpoint: mean survival time, dose: 100.0 mg/kg/injection, schedule: Q01DX009 (ip), vehicle: saline
[14] = endpoint: mean survival time, dose: 200.0 mg/kg/injection, schedule: Q01DX009 (ip), vehicle: saline

Measured: T/C

CC1=CC(S)NC(=S)N1 (centres undefined)
inactive: [1] 103 % of control | [2] 95 % of control | [3] 106 % of control

O=c1[nH]c2ccccc2[nH]1
inactive: [4] 100 % of control | [5] 95 % of control | [6] 103 % of control

CCCc1nc(N)[nH]c(=O)c1CCCCc1ccccc1
inactive: [4] 88 % of control | [5] 94 % of control | [6] 93 % of control

N#CC(c1ccc(N)cc1)C(CC(=O)c1ccccc1)c1ccccc1 (centres undefined)
inactive: [1] 87 % of control and 95 % of control | [2] 91 % of control | [3] 87 % of control and 95 % of control

c1ccc2c(NCCCCCCCCNc3c4ccccc4nc4ccccc34)c3ccccc3nc2c1
inactive: endpoint: mean survival time, dose: 1.25 mg/kg/injection, schedule: Q01DX009 (ip), vehicle: Klucel (hydroxypropylcellulose) (HPC) 120 % of control | endpoint: mean survival time, dose: 2.5 mg/kg/injection, schedule: Q01DX009 (ip), vehicle: Klucel (hydroxypropylcellulose) (HPC) 114 % of control and 100 % of control | endpoint: mean survival time, dose: 5.0 mg/kg/injection, schedule: Q01DX009 (ip), vehicle: Klucel (hydroxypropylcellulose) (HPC) 119 % of control and 120 % of control and 111 % of control | endpoint: mean survival time, dose: 10.0 mg/kg/injection, schedule: Q01DX009 (ip), vehicle: Klucel (hydroxypropylcellulose) (HPC) 109 % of control and 111 % of control | endpoint: mean survival time, dose: 20.0 mg/kg/injection, schedule: Q01DX009 (ip), vehicle: Klucel (hydroxypropylcellulose) (HPC) 117 % of control

CC(c1ccccc1)n1cncc1C(=O)NN(C)C (centres undefined)
inactive: [7] 96 % of control | [8] 93 % of control | [9] 91 % of control

O=C(Cl)C1CCCCC1
inactive: [7] 93 % of control | [8] 97 % of control | [9] 89 % of control

CN1C(=O)NC(c2cccc(N(CCCl)CCCl)c2)C1=O (centres undefined)
inactive: endpoint: mean survival time, dose: 25.0 mg/kg/injection, schedule: Q01DX001 (ip), vehicle: Klucel (hydroxypropylcellulose) (HPC) 116 % of control and 108 % of control | endpoint: mean survival time, dose: 50.0 mg/kg/injection, schedule: Q01DX001 (ip), vehicle: Klucel (hydroxypropylcellulose) (HPC) 120 % of control | endpoint: mean survival time, dose: 100.0 mg/kg/injection, schedule: Q01DX001 (ip), vehicle: Klucel (hydroxypropylcellulose) (HPC) 121 % of control

NC(=O)NC(=S)NC(=O)c1ccccc1
inactive: [10] 111 % of control | [4] 102 % of control | [11] 98 % of control | [5] 98 % of control | [12] 98 % of control | [6] 101 % of control

O=C(NCCCl)C(=O)NCCCl
inactive: [1] 100 % of control | [2] 100 % of control | [3] 100 % of control

CN(C)/N=N\c1c(C(N)=O)ncn1C1OC(CO)C(O)C1O (centres undefined)
inactive: endpoint: mean survival time, dose: 100.0 mg/kg/injection, schedule: Q01DX005 (ip), vehicle: saline 104 % of control | endpoint: mean survival time, dose: 200.0 mg/kg/injection, schedule: Q01DX005 (ip), vehicle: saline 95 % of control

Cn1cnc([N+](=O)[O-])c1Sc1ncnc2c1ncn2C1CC(O)C(CO)O1 (centres undefined)
inactive: endpoint: median survival time, dose: 3.75 mg/kg/injection, schedule: Q01DX005 (ip), vehicle: saline with Tween-80 104 % of control | endpoint: median survival time, dose: 7.5 mg/kg/injection, schedule: Q01DX005 (ip), vehicle: saline with Tween-80 106 % of control | endpoint: median survival time, dose: 15.0 mg/kg/injection, schedule: Q01DX005 (ip), vehicle: saline with Tween-80 103 % of control | endpoint: median survival time, dose: 30.0 mg/kg/injection, schedule: Q01DX005 (ip), vehicle: saline with Tween-80 106 % of control | endpoint: median survival time, dose: 60.0 mg/kg/injection, schedule: Q01DX005 (ip), vehicle: saline with Tween-80 118 % of control

Nc1ncnc2nc(CCCCc3ccccc3)[nH]c12
inactive: endpoint: mean survival time, dose: 3.0 mg/kg/injection, schedule: Q01DX009 (ip), vehicle: saline with Tween-80 95 % of control | endpoint: mean survival time, dose: 6.0 mg/kg/injection, schedule: Q01DX009 (ip), vehicle: saline with Tween-80 106 % of control | endpoint: mean survival time, dose: 12.0 mg/kg/injection, schedule: Q01DX009 (ip), vehicle: saline with Tween-80 104 % of control

CCCCCn1c(Cl)c(/C=N/NC(N)=S)c2ccccc21
inactive: endpoint: mean survival time, dose: 25.0 mg/kg/injection, schedule: Q04DX003 (ip), vehicle: saline with Tween-80 102 % of control | endpoint: mean survival time, dose: 50.0 mg/kg/injection, schedule: Q04DX003 (ip), vehicle: saline with Tween-80 93 % of control | [4] 96 % of control

Nc1c(Cl)c(Cl)cc(Cl)c1Cl
inactive: [4] 97 % of control | [5] 102 % of control | [6] 92 % of control

OCC12OCC(O1)C(O)C(O)C2O (centres undefined)
inactive: [13] 97 % of control | [14] 103 % of control | endpoint: mean survival time, dose: 400.0 mg/kg/injection, schedule: Q01DX009 (ip), vehicle: saline 98 % of control

CC(=O)NC(Cc1ccccc1)C(C)=O (centres undefined)
inactive: [7] 102 % of control | [8] 98 % of control | [9] 102 % of control

CCOC(=O)CO
inactive: endpoint: mean survival time, dose: 50.0 mg/kg/injection, schedule: Q01DX009 (ip), vehicle: saline 104 % of control | [13] 93 % of control | [14] 101 % of control

COc1ccc(OC)c(NC(=S)NC(=O)COc2ccccc2)c1
inactive: [7] 87 % of control | [10] 94 % of control and 97 % of control | [1] 98 % of control | [8] 87 % of control | [11] 88 % of control and 93 % of control | [2] 102 % of control | [9] 89 % of control | [12] 102 % of control and 104 % of control | [3] 109 % of control
